Experimental data from the OligoGym collection.
Where “and” joins values, the source holds several entries; their conditions need not be identical. Equal entries are not always repeated. After the bases stand the sugars from the 5' end (letter, count) and the backbone: PS all phosphorothioate, else s phosphorothioate and o phosphodiester by linkage. Methylation of C is not given here. e = 2'-O-(2-methoxyethyl) (MOE); k = constrained ethyl (cEt); d = 2'-deoxy (DNA)

How the values were obtained:
MALAT1 = conditions: ASO, A431, 0.005 µM
IRF4 = conditions: ASO

Sequence | target mRNA inhibition (IRF4; SK-MEL-28, 4 µM) | target mRNA inhibition (IRF4; MM.1R, 1 µM) | also measured
AAAAAGGCTCGATGGA (sugars k3 d10 k3, PS) |  |  | target mRNA inhibition (MALAT1): 52%
AAAACCCCCGGAACTT (sugars k3 d10 k3, PS) |  |  | target mRNA inhibition (MALAT1): 9%
AAAAGATCGCCTTCAA (sugars k3 d10 k3, PS) |  |  | target mRNA inhibition (MALAT1): 34%
AAAAGTGGTTGCCCGC (sugars k3 d10 k3, PS) |  |  | target mRNA inhibition (MALAT1): 28%
AAAATGGCGGACTTTC (sugars k3 d10 k3, PS) |  |  | target mRNA inhibition (MALAT1): 30%
AAACAACATATTGCCG (sugars k3 d10 k3, PS) |  |  | target mRNA inhibition (MALAT1): 20%
AAACCCCCGGAACTTT (sugars k3 d10 k3, PS) |  |  | target mRNA inhibition (MALAT1): 5%
TGCAACTGGCTCACTA (sugars k3 d10 k3, PS) | 17% |  | 
TGCAAGTATGTAGCAA (sugars k3 d10 k3, PS) | 3% |  | 
TGCATCTATAAGATGT (sugars k4 d8 k4, PS) | 10% |  | 
TGCCAATCAGATGTCA (sugars k3 d10 k3, PS) | 22% |  | 
TGCCTAGGACTAAGGA (sugars k3 d10 k3, PS) | 26% |  | 
TGCGAAGAATTTTAGC (sugars k3 d10 k3, PS) | 41% |  | 
TGCTACTGCGGACATC (sugars k3 d10 k3, PS) | 43% |  | 
TGCTAGGACACAGCTG (sugars k3 d10 k3, PS) | 43% |  | 
TGCTTGAGGTTTTCCT (sugars k3 d10 k3, PS) | 80% and 76% |  | 
TGCTTGAGGTTTTCCT (sugars kddddddddddkekek, PS) |  | 36% | 
TGCTTGAGGTTTTCCT (sugars kkddddddddddkeke, PS) |  | 33% | 
TGCTTGAGGTTTTCCT (sugars kkdddddddddkekek, PS) |  | 36% | 
TGGAACAGTAACTTGA (sugars k3 d10 k3, PS) | 12% |  | 
TGGAACTCATAGGTGT (sugars k3 d10 k3, PS) | 62% |  | 
TGGAACTCTAGTGTCC (sugars k3 d10 k3, PS) | 2% |  | 
TGGAGATACTTGTACT (sugars k3 d10 k3, PS) |  | 42% and 21% | target mRNA inhibition (IRF4; MM.1R, 0.0625 µM): -15%; target mRNA inhibition (IRF4; MM.1R, 0.25 µM): -7%; target mRNA inhibition (IRF4; MM.1R, 4 µM): 58%
TGGAGGTCTTTGGGAT (sugars k3 d10 k3, PS) | 58% |  | 
TGGATCCTGAGAGTAA (sugars k3 d10 k3, PS) |  | 0% | 
TGGATCTGAATTGTTA (sugars k3 d10 k3, PS) | 55% |  | 

Sequence | target mRNA inhibition (IRF4; SK-MEL-28, 4 µM) | target mRNA inhibition (IRF4; MM.1R, 1 µM) | also measured
TGGATTGATGTGATAG (sugars k3 d10 k3, PS) |  | 48% | 
TGGATTGCTGATGTGT (sugars k3 d10 k3, PS) |  | 71% and 75% | target mRNA inhibition (IRF4; MM.1R, 0.0625 µM): 45%; target mRNA inhibition (IRF4; MM.1R, 0.25 µM): 58%; target mRNA inhibition (IRF4; MM.1R, 4 µM): 90%
TGGCACAGTCTTTTCG (sugars k3 d10 k3, PS) | 28% |  | 
TGGCAGTCTACAGAAC (sugars k3 d10 k3, PS) | -22% |  | 
TGGCATGCGAATGTGC (sugars k3 d10 k3, PS) |  | -21% | 
TGGCTAGCAGAGGTTC (sugars k4 d8 k4, PS) | 9% |  | 
TGGTAACTGTATGGAA (sugars k3 d10 k3, PS) | 48% |  | 
TGGTAATCTTCTGGAT (sugars k3 d10 k3, PS) | 24% |  | 
TGGTTGGCTGGTCTTT (sugars kdddddddddkekeke, PS) |  | 31% | 
TGGTTGGCTGGTCTTT (sugars kkdddddddddekeke, PS) |  | 60% | 
TGGTTGGCTGGTCTTT (sugars kkdddddddddkekek, PS) |  | 44% | 
TGTAACTCTGAGTAGA (sugars k3 d10 k3, PS) | 43% |  | 
TGTAACTGAGGACTCA (sugars k3 d10 k3, PS) | -2% |  | 
TGTAAGGGCTGCTCAT (sugars k3 d10 k3, PS) | 49% |  | 
TGTAAGGTCTGAGAGC (sugars k3 d10 k3, PS) | 25% |  | 
TGTAATGTAGGGATAC (sugars k3 d10 k3, PS) | 53% |  | 
TGTAGTATGAGAAACG (sugars kkddddddddddkeke, PS) |  | 10% | 
TGTATACCAACGACAG (sugars k3 d10 k3, PS) | 58% |  | 
TGTCACTATGCCTGAA (sugars k3 d10 k3, PS) | 27% |  | 
TGTGATAGCTGAGCTG (sugars kkdddddddddekeke, PS) |  | 41% | 
TGTGATAGCTGAGCTG (sugars kkdddddddddkdkdk, PS) |  | 47% | 
TGTGCTTGCCAAGCCT (sugars kddddddddddkekek, PS) |  | -1% and 3% | 
TGTGCTTGCCAAGCCT (sugars kkdddddddddkdkdk, PS) |  | 23% and 21% | 
TGTGTATTACTCTTAG (sugars kkdddddddddekeke, PS) |  | 54% and 66% | 
TGTGTCAAAGAGCTTG (sugars k4 d8 k4, PS) | 26% |  | 
TGTTAAGTCCCATCTG (sugars k3 d10 k3, PS) | 25% |  | 
